Earlier results on one molecule are cited in patent US10227338B2, “Substituted benzenesulfonamides as sodium channel blockers” (Daewoong Pharmaceutical Co., Ltd., priority 2015, dated 2019).

The test system of the data set is neuropathic pain.

With `NCC1(CC(=O)O)CCCCC1` [gabapentin], the “effective for % of the patients” value is on record as 60%.
